# Structures can show the parent of a compound that is named as a salt. Where two headings read alike, the source gives them in different places.
# Columns and labels:
# [1] = molecular target: T1, 14-3-3ζ:BAD-112-136F interactions (Homo sapiens, UniProt P63104); experiment: BRET sensor screen for disruption of 14-3-3ζ-Rluc8:BAD-112-136F-mCitrine in living NIH-3T3 cells; type: cell-based, murine; set-up: inhibition: dose or concentration left out as unconfirmed; BRET reduction on NIH-3T3: unit not given here; conditions: for inhibition / inhibition at 20 µM: NIH3T3, 3 h
# T1 construct: expressed in transfected cells; host or cells: NIH-3T3 fibroblasts, bi-directional pBI-CMV1 plasmid
# T1 sequence (P63104 1-245): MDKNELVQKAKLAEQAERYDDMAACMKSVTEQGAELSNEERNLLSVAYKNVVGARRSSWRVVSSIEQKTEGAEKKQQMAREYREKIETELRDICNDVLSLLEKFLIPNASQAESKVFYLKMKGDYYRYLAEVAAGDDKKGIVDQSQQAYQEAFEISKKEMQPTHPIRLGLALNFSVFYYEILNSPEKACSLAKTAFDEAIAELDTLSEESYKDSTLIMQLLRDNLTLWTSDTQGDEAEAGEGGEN
# Procedure: The Z’-score, which evaluates the robustness of an HTS assay readout, was calculated according to standard protocols. For the HTS, 384-well plates were coated with 100 μg/mL poly-L-ornithine (Sigma, Missouri, United States; #P3655) overnight at 37 °C, followed by rinsing with sterilized water. NIH-3T3 cells were transfected with the BRET sensor two days prior to experimentation, followed by replating onto the pre-coated 384-well plates at a density of 20,000 cells/well. After 24 h of incubation at 37 °C, growth media was replaced by Krebs buffer (pH 7.4).
# NIH-3T3 cells = experiment: Hoechst/propidium iodide cell death assay in NIH-3T3; type: cell-based; conditions: for cytotoxicity at 20 µM: Mus musculus, NIH3T3, 24 h
# Excerpt: (§1) A high-content imaging system (PerkinElmer; Operetta CLS), was used to quantify cell death and apoptosis by calculating the number of propidium iodide-positive cells relative to Hoechst-positive cells, and the number of Annexin V-positive cells relative to Hoechst-positive cells, respectively.
# HT-29 cells = experiment: Hoechst/propidium iodide cell death assay in HT-29; type: cell-based, human; conditions: for cytotoxicity at 20 µM: Homo sapiens
# Excerpt: as §1
# [2] = NIH-3T3 cells, hits from the primary screen, read-out: BRET reduction on NIH-3T3
# [3] = NIH-3T3 expressing BRET sensor, 20 µM, 3 h, read-out: BRET reduction on NIH-3T3
# [4] = 20 µM, 24 h, read-out: Percentage of cell death % 24h NIH3t3
# [5] = HT-29, 24 h, 20 µM, 24 h, read-out: Percentage of cell death % 24h HT-29
# [6] = HT-29, 48 h, HT-29, 48h, 20 μM, read-out: Percentage of cell death % 48h, HT-29
# [7] = NIH-3T3 cells, hits from the primary screen
# [8] = NIH-3T3 expressing BRET sensor, 20 µM, 3 h
SMILES,"inhibition [1, 2] [%]","inhibition at 20 µM [1, 3] [%]",cytotoxicity at 20 µM (NIH-3T3 cells; [4]) [%],"Percentage of cell death % 48h, NIH3T3 (NIH-3T3 cells) [%]",cytotoxicity at 20 µM (HT-29 cells; [5]) [%],cytotoxicity at 20 µM (HT-29 cells; [6]) [%],other results
CCc1c(Cl)c(O)c(Cl)c(O)c1C(=O)O[C@H]1[C@H](O)[C@H](OC)[C@H](OC/C2=C\C=C\C[C@H](O)/C(C)=C/[C@H](CC)[C@@H](O[C@@H]3OC(C)(C)[C@@H](OC(=O)C(C)C)[C@H](O)[C@@H]3O)/C(C)=C/C(C)=C/C[C@@H]([C@@H](C)O)OC2=O)O[C@@H]1C [Fidaxomicin],32.5,32.5,1.82,1.5823,2.31,52.8,–
CC[C@H](c1ccc(O)cc1)[C@@H](CC)c1ccc(O)cc1 [Hexestrol],36.7,36.7,5.47,3.549,1.37,3.31,–
Cc1cc(Nc2ncc(Cl)c(Nc3ccccc3S(=O)(=O)C(C)C)n2)c(OC(C)C)cc1C1CCNCC1 [LDK378],46.5,46.5,80.9,75.6563,92.1,89.8,–
CC1(C)Cc2c(-c3ccccc3)c(-c3ccc(Cl)cc3)c(CC(=O)O)n2C1 [Licofelone],33,33,0.823,0.4583,2.67,3.98,–
NC(=O)N1CCC(CC(=O)N2CCC([C@H]3c4ncc(Br)cc4CCc4cc(Cl)cc(Br)c43)CC2)CC1 [Lonafarnib],40.6,40.6,36.3,40.7575,1.12,1.7,–
Clc1ccc(COC(Cn2ccnc2)c2ccc(Cl)cc2Cl)c(Cl)c1 (stereo not shown) [Miconazole Nitrate],–,–,–,6.033,–,–,"BRET reduction on NIH-3T3 [1, 7]: 52.8386; BRET reduction on NIH-3T3 [1, 8]: 52.8386; Percentage of cell death % 24h NIH3t3 (NIH-3T3 cells; 20 µM, 24 h): 12.1676%; Percentage of cell death % 24h HT-29 (HT-29 cells; 20 µM, 24 h): 5.26%; Percentage of cell death % 48h, HT-29 (HT-29 cells; HT-29, 48h, 20 μM): 9.591%"
Clc1ccc(COC(Cn2ccnc2)c2ccc(Cl)cc2Cl)c(Cl)c1 (stereo not shown) [Miconazole],48.7,48.7,–,3.437,2.78,5.75,"Percentage of cell death % 24h NIH3t3 (NIH-3T3 cells; 20 µM, 24 h): 6.07%"
"Clc1ccc(C(c2ccccc2Cl)C(Cl)Cl)cc1 (stereo not shown) [Mitotane (Lsodren), Mitotane]",25.6,25.6,25.3,5.575,0.553,1.62,–
O=C1c2c(O)ccc(O)c2C(=O)c2c(NCCNCCO)ccc(NCCNCCO)c21 [Mitoxantrone HCl],25.5,25.5,0.018,0,0,0.0037,–
CC(C)(O)c1ccccc1CC[C@@H](SCC1(CC(=O)O)CC1)c1cccc(/C=C/c2ccc3ccc(Cl)cc3n2)c1 [Montelukast Sodium],30.9,30.9,14.8,2.7667,0.524,1.19,–
CC[C@H]1[C@@H](O)[C@@H]2[C@H](CC[C@]3(C)[C@@H]([C@H](C)CCC(=O)O)CC[C@@H]23)[C@@]2(C)CC[C@@H](O)C[C@@H]12 [Obeticholic Acid],36.4,36.4,1.16,0.273,0.566,1.41,–
CC/C(=C(\c1ccccc1)c1ccc(OCCN(C)C)cc1)c1ccccc1 [Tamoxifen],–,–,–,78.8324,–,–,"BRET reduction on NIH-3T3 [1, 7]: 54.2923; BRET reduction on NIH-3T3 [1, 8]: 54.2923; Percentage of cell death % 24h NIH3t3 (NIH-3T3 cells; 20 µM, 24 h): 81.9489%; Percentage of cell death % 24h HT-29 (HT-29 cells; 20 µM, 24 h): 3.365%; Percentage of cell death % 48h, HT-29 (HT-29 cells; HT-29, 48h, 20 μM): 61.8661%; %Cell death HT-29 (HT-29 cells; HT-29, time not given): 63.3%"
"Cn1cncc1[C@@](N)(c1ccc(Cl)cc1)c1ccc2c(c1)c(-c1cccc(Cl)c1)cc(=O)n2C [Tipifarnib (Zarnestra), Tipifarnib]",–,–,–,52.702,–,–,"inhibition at 20 µM ([1]; read-out: BRET reduction on NIH-3T3, NIH-3T3 cells, hits from the primary screen): 43.9%; inhibition at 20 µM ([1]; read-out: BRET reduction on NIH-3T3, NIH-3T3 expressing BRET sensor, 20 µM, 3 h): 43.9%; cytotoxicity at 20 µM (NIH-3T3 cells; read-out: Percentage of cell death % 24h NIH3t3, 20 µM, 24 h): 65.9%; cytotoxicity at 20 µM (HT-29 cells; HT-29, 24 h, read-out: Percentage of cell death % 24h HT-29, 20 µM, 24 h): 3.09%; cytotoxicity at 20 µM (HT-29 cells; HT-29, 48 h, read-out: Percentage of cell death % 48h, HT-29, HT-29, 48h, 20 μM): 12.9%"

# More lines, main results first:
"inhibition [1, 2] [%]","inhibition at 20 µM [1, 3] [%]",SMILES,cytotoxicity at 20 µM (NIH-3T3 cells; [4]) [%],"Percentage of cell death % 48h, NIH3T3 (NIH-3T3 cells) [%]",cytotoxicity at 20 µM (HT-29 cells; [5]) [%],cytotoxicity at 20 µM (HT-29 cells; [6]) [%],other results
28.4,28.4,CCOc1cc(CC(=O)N[C@@H](CC(C)C)c2ccccc2N2CCCCC2)ccc1C(=O)O [Repaglinide],0.236,0.185,0.354,1.01,–
45.5,45.5,CC(C)=CCC/C(C)=C/CC/C(C)=C/CSc1ccccc1C(=O)O [Salirasib],3.71,1.2519,0.693,1.28,–
46.8,46.8,Clc1ccc(C(Cn2ccnc2)OCc2csc3c(Cl)cccc23)c(Cl)c1 (stereo not shown) [Sertaconazole nitrate],4.15,10.0161,2.46,4.64,–
26,26,"C=CC[C@@H]1/C=C(\C)C[C@H](C)C[C@H](OC)[C@H]2O[C@@](O)(C(=O)C(=O)N3CCCC[C@H]3C(=O)O[C@H](/C(C)=C/[C@@H]3CC[C@@H](O)[C@H](OC)C3)[C@H](C)[C@@H](O)CC1=O)[C@H](C)C[C@@H]2OC [Tacrolimus (FK506), Tacrolimus]",0.808,0.523,0.958,2.46,–
51.8,51.8,CC/C(=C(\c1ccccc1)c1ccc(OCCN(C)C)cc1)c1ccccc1 [Tamoxifen Citrate],76.5,76.3192,5.86,63.3,–
27.4,27.4,CSc1ccc2c(c1)N(CCC1CCCCN1C)c1ccccc1S2 (stereo not shown) [Thioridazine HCl],83.3,84.4863,1.72,16.7,–
38.3,38.3,CCCCCCCCCCCCCCCC[N+](C)(C)CCN(Cc1ccc(OC)cc1)c1ncccn1 [Thonzonium Bromide],86.2,80.9399,94.9,94.7,–
–,27.3,Clc1ccc(C(Cn2ccnc2)OCc2ccsc2Cl)c(Cl)c1 (stereo not shown) [Tioconazole],7.78,3.795,2.22,5.98,"inhibition at 20 µM [1, 2]: 27.3%"
30.9,30.9,Cc1c(C)c2c(c(C)c1O)CCC(C)(COc1ccc(CC3SC(=O)NC3=O)cc1)O2 (stereo not shown) [Troglitazone],0.791,0.3187,0.272,0.925,–
30.4,30.4,COc1cc(C(=O)NS(=O)(=O)c2ccccc2C)ccc1Cc1cn(C)c2ccc(NC(=O)OC3CCCC3)cc12 [Zafirlukast],0.402,0.2485,0.343,0.917,–
25.5,25.5,O=C1Cc2cc(CCN3CCN(c4nsc5ccccc45)CC3)c(Cl)cc2N1 [Ziprasidone hydrochloride monohydrate],1.15,0.2764,1.29,1.87,–
